pEC50, pIC50, pKi: −log10 of the molar value. The source made the active and inactive calls. The rule behind the calls is not given here.
Legend:
[1] = AUC in brain of CD1 mouse at 10 mg/kg, ip measured over 15 mins to 240 mins by UHPLC-MS/MS method; format: ADME, organism-based; design: dose 10 mg/kg, time upper 4 hr, time lower 0.25 hr, route intraperitoneal; conditions: in vivo
Mus musculus [2] = experiment: (§1) Effect on social interaction in Oprm1+/+ mouse model of autism spectrum disorders assessed as mean duration of nose contacts at 10 mg/kg, ip pre-treated before open-field test for 10 mins; format: ADME, organism-based; conditions: in vivo
Oxytocin receptor [3] = target: T1, Oxytocin receptor (Homo sapiens, UniProt P30559); experiment: Displacement of DY647 from SNAP-tagged OTR receptor (unknown origin) expressed in HEK293 cells by TR-FRET assay; format: cell-based
T1 sequence (P30559 whole entry): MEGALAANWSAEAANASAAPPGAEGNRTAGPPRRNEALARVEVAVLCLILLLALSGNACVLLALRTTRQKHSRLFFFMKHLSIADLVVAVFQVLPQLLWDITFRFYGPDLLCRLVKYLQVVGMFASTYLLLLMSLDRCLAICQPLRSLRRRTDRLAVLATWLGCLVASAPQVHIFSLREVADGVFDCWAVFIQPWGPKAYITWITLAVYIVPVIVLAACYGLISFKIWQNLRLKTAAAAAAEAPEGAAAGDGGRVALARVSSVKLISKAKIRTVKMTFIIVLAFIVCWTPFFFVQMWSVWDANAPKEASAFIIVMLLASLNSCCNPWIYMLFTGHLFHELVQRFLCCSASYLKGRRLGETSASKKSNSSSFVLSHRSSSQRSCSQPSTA

[4] = Lipophilicity, log D of the compound; format: physicochemical; conditions: octanol/water
Vasopressin V1a receptor [5] = target: T2, Vasopressin V1a receptor (Homo sapiens, UniProt P37288); experiment: Antagonist activity at human V1A receptor expressed in HEK cells assessed as inhibition of AVP-induced intracellular calcium flux incubated for 45 mins by Indo1-AM dye based fluorescence assay relative to AVP; format: functional, cell-based
T2 sequence (P37288 whole entry): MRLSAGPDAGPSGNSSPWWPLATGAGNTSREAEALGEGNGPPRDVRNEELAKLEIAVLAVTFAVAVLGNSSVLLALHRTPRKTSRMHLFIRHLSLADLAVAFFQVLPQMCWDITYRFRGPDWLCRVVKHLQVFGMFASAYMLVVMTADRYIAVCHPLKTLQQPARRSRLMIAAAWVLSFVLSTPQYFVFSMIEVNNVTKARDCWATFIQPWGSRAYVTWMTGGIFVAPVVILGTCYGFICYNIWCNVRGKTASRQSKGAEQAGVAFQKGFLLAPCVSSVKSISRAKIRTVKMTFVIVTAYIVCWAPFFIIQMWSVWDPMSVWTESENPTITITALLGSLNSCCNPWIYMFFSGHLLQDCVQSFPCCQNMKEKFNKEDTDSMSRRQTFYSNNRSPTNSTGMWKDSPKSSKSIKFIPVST

Mus musculus [6] = experiment: Improvement in social interaction in Oprm1-/- mouse model of autism spectrum disorders assessed as restoration of number of following episodes at 20 mg/kg, ip pre-treated before open-field test for 10 mins; format: functional, organism-based
Mus musculus [7] = experiment: as §1; format: ADME, organism-based; conditions: in vivo; remark: listed apart in the source
Vasopressin V1a receptor [8] = target: T2, Vasopressin V1a receptor; experiment: Antagonist activity at human V1a receptor expressed in HEK293FT cells assessed as inhibition of AVP-induced calcium release by Aequorin based assay; format: functional, cell-based
Oxytocin receptor [9] = target: T1, Oxytocin receptor; experiment: Agonist activity at human OTR expressed in HEK cells assessed as increase in intracellular calcium flux incubated for 45 mins by Indo1-AM dye based fluorescence assay; format: functional, cell-based
Oxytocin receptor [10] = target: T1, Oxytocin receptor; experiment: Agonist activity at human OTR receptor expressed in HEK293FT cells assessed as stimulation of calcium release by Aequorin based assay; format: functional, cell-based
Mus musculus [11] = experiment: Effect on social interaction in Oprm1+/+ mouse model of autism spectrum disorders assessed as time spent in nose contacts at 10 mg/kg, ip pre-treated before open-field test for 10 mins; format: ADME, organism-based; conditions: in vivo
Vasopressin V2 receptor [12] = target: T3, Vasopressin V2 receptor (Homo sapiens, UniProt P30518); experiment: Agonist activity at human V2 receptor expressed in HEK293FT cells incubated for 30 mins by beta-arrestin recruitment assay; format: functional, cell-based
T3 sequence (P30518 whole entry): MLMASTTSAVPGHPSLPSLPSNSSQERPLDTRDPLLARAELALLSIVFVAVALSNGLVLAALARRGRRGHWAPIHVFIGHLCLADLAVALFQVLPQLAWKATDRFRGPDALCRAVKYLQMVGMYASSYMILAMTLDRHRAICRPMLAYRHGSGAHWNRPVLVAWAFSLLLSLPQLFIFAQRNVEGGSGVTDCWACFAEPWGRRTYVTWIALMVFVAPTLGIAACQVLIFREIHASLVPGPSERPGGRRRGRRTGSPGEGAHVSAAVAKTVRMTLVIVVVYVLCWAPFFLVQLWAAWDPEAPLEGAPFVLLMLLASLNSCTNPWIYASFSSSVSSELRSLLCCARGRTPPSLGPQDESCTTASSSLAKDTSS

Vasopressin V1a receptor [13] = target: T2, Vasopressin V1a receptor
Description: Agonist activity at human V1a receptor expressed in HEK293FT cells assessed as stimulation of calcium release by Aequorin based assay

[14] = target: T4, Oxytocin receptor (Homo sapiens) (UniProt P30559); experiment: Agonist activity at human OTR receptor expressed in HEK293FT cells assessed as stimulation of calcium release by Aequorin based assay relative to OT; format: functional, cell-based
T4 sequence (whole entry): T1 sequence (P30559 whole entry)

[15] = target: T4, Oxytocin receptor (Homo sapiens); experiment: Antagonist activity at human OTR expressed in HEK cells assessed as inhibition of OT-induced intracellular calcium flux at 1 uM incubated for 45 mins by Indo1-AM dye based fluorescence assay relative to OT; format: functional, cell-based
Vasopressin V1a receptor [16] = target: T2, Vasopressin V1a receptor; experiment: Displacement of DY647 from SNAP-tagged V1A receptor (unknown origin) expressed in HEK293 cells by TR-FRET assay; format: cell-based
Vasopressin V2 receptor [17] = target: T3, Vasopressin V2 receptor; experiment: Agonist activity at human V2 receptor expressed in HEK293FT cells assessed as stimulation of calcium release by Aequorin based assay; format: functional, cell-based
Mus musculus [18] = experiment: Improvement in social interaction in Oprm1-/- mouse model of autism spectrum disorders assessed as restoration of mean duration of nose contacts at 10 mg/kg, ip pre-treated before open-field test for 10 mins; format: functional, organism-based
Mus musculus [19] = experiment: Improvement in social interaction in Oprm1-/- mouse model of autism spectrum disorders assessed as restoration of number of nose contacts at 10 mg/kg, ip pre-treated before open-field test for 10 mins; format: functional, organism-based
Vasopressin V1b receptor = target: T5, Vasopressin V1b receptor (Homo sapiens, UniProt P47901); experiment: Antagonist activity at human V1b receptor expressed in HEK293FT cells assessed as inhibition of AVP-induced calcium release by Aequorin based assay; format: functional, cell-based
T5 sequence (P47901 whole entry): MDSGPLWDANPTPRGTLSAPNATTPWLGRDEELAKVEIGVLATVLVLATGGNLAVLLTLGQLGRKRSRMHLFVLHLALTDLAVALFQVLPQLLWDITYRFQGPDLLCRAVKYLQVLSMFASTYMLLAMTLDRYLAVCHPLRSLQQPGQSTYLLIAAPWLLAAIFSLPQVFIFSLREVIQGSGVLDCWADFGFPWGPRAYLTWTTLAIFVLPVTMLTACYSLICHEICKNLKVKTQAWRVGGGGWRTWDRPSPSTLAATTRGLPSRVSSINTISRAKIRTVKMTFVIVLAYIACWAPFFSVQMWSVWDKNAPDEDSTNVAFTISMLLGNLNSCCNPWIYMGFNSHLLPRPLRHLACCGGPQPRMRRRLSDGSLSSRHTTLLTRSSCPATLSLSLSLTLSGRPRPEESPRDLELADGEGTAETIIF

[20] = target: T4, Oxytocin receptor (Homo sapiens); experiment: Agonist activity at human OTR receptor expressed in HEK293FT cells incubated for 30 mins by beta-arrestin recruitment assay relative to OT; format: functional, cell-based
Mus musculus [21] = experiment: Effect on social interaction in Oprm1+/+ mouse model of autism spectrum disorders assessed as grooming episodes occurring after social contact at 10 mg/kg, ip pre-treated before open-field test for 10 mins; format: ADME, organism-based; conditions: in vivo
Mus musculus [22] = experiment: Improvement in social interaction in Oprm1-/- mouse model of autism spectrum disorders assessed as suppression of grooming episodes occurring after social contact at 10 mg/kg, ip pre-treated before open-field test for 10 mins; format: functional, organism-based
Mus musculus [23] = experiment: Improvement in social interaction in Oprm1-/- mouse model of autism spectrum disorders assessed as restoration of number of nose contacts at 20 mg/kg, ip pre-treated before open-field test for 10 mins; format: functional, organism-based
Mus musculus [24] = experiment: Effect on social interaction in Oprm1+/+ mouse model of autism spectrum disorders assessed as number of nose contacts at 10 mg/kg, ip pre-treated before open-field test for 10 mins; format: ADME, organism-based; conditions: in vivo

Structure (SMILES): Cc1cc(C(=O)N2Cc3cnn(C)c3Nc3ccccc32)ccc1CNC(=O)N1CCC[C@H]1C(=S)N(C)C
- AUC [1]: 399 ng·min/g
- Activity (Mus musculus [2]): Toxic
- pKi (Oxytocin receptor [3]): 6.65
- logD [4]: 2
- pIC50 (Vasopressin V1a receptor [5]): 7.00
- Activity (Mus musculus [6]): inactive
- Activity (Mus musculus [7]): Non-Toxic
- pIC50 (Vasopressin V1a receptor [8]): 5.23
- pEC50 (Oxytocin receptor [9]): 7.26
- pEC50 (Oxytocin receptor [10]): 7.60
- Activity (Mus musculus [11]): Non-Toxic
- pEC50 (Vasopressin V2 receptor [12]): 6.18
- EC50 (Vasopressin V1a receptor [13]): Not Active
- Emax [14]: 96%
- inhibition [15]: 5 to 10%
- pKi (Vasopressin V1a receptor [16]): 5.90
- pEC50 (Vasopressin V2 receptor [17]): 7.39
- Activity (Mus musculus [18]): Active
- Activity (Mus musculus [19]): Active
- IC50 (Vasopressin V1b receptor): Not Active
- Emax [20]: 77%
- Activity (Mus musculus [21]): Non-Toxic
- Activity (Mus musculus [22]): Active
- Activity (Mus musculus [23]): inactive
- Activity (Mus musculus [24]): Non-Toxic
